According to patent publication US20260125382A1, “COMPOUNDS FOR INHIBITING OR DEGRADING CDK2 AND/OR CDK9 AND MEDICINAL USE THEREOF” (KOREA RESEARCH INSTITUTE OF CHEMICAL TECHNOLOGY, priority 2022, published 2026):

What was measured:
CDK2 = molecular target: T1, CDK2 (Homo sapiens, UniProt P24941); test: CDK protein degradation activity (Western blotting), CDK2; format: cell-based; settings: MDA-MB-231 cells, 16 hours, Western blot
T1 construct: endogenous in cells; host or cells: MDA-MB-231
Method in brief: (§1)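 MDA-MB-231 cells were treated with compound at final concentrations of 100 nM, 1 μM and 10 μM, or DMSO vehicle, for 16 h. Lysates were resolved by SDS-PAGE and immunoblotted for CDK2, CDK9 and tubulin, with band intensities quantified densitometrically.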

CDK9 = molecular target: T2, CDK9 (Homo sapiens, UniProt P50750); test: CDK protein degradation activity (Western blotting), CDK9; format: cell-based; settings: MDA-MB-231 cells, 16 hours, Western blot
T2 construct: endogenous in cells; host or cells: MDA-MB-231
T2 sequence (P50750 whole entry): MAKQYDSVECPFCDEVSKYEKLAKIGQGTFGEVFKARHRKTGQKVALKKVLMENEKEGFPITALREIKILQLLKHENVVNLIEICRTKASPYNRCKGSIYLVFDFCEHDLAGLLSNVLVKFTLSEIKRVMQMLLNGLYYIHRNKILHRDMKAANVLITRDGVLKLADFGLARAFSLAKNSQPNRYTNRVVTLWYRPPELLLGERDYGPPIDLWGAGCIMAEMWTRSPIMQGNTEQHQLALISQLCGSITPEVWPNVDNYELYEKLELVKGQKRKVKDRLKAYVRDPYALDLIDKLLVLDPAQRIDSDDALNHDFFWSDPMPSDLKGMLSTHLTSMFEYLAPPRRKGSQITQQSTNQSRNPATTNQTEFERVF
Method in brief: as §1

Row | Compound | Enzyme degradation CDK2 (% remaining) @ 0.1 μM (CDK2) | Enzyme degradation CDK2 (% remaining) @ 1 μM (CDK2) | Enzyme degradation CDK2 (% remaining) @ 10 μM (CDK2) | Enzyme degradation CDK9 (% remaining) @ 0.1 μM (CDK9) | Enzyme degradation CDK9 (% remaining) @ 1 μM (CDK9) | Enzyme degradation CDK9 (% remaining) @ 10 μM (CDK9)
1 | O=C1CC[C@H](N2C(=O)c3ccc(NCC(=O)N4CCC(CN5CCC(c6ccc(Nc7ncnc8c7ncn8C7CC(NC(=O)Cc8ccccc8)C7)cc6)CC5)CC4)cc3C2=O)C(=O)N1 (stereo partly drawn) [Compound 290, N-((1s,3s)-3-(6-((4-(1-((1-((2-(2,6-dioxopiperidin-3-yl)-1,3-dioxoisoindolin-5-yl)glycyl)piperidin-4-yl)methyl)piperidin-4-yl)phenyl)amino)-9H-purin-9-yl)cyclobutyl)-2-phenylacetamide] | 20% | 20% | 30% | 10% | 0% | 0%
2 | O=C1CC[C@H](N2C(=O)c3cccc(N4CCC(CN5CCC(c6ccc(Nc7ncnc8c7ncn8C7CC(NC(=O)Cc8ccccc8)C7)cc6)CC5)CC4)c3C2=O)C(=O)N1 (stereo partly drawn) [Compound 291, N-((1s,3s)-3-(6-((4-(1-((1-(2-(2,6-dioxopiperidin-3-yl)-1,3-dioxoisoindolin-4-yl)piperidin-4-yl)methyl)piperidin-4-yl)phenyl)amino)-9H-purin-9-yl)cyclobutyl)-2-phenylacetamide] | 20/20/20% | 20/20/20% | 20/20/20% | 20% | 0% | 0%
3 | O=C1CC[C@H](N2C(=O)c3ccc(N4CCC(CN5CCC(c6ccc(Nc7ncnc8c7ncn8[C@H]7C[C@@H](NC(=O)Cc8ccccc8)C7)cc6)CC5)CC4)cc3C2=O)C(=O)N1 [Compound 292, N-((1s,3s)-3-(6-((4-(1-((1-(2-(2,6-dioxopiperidin-3-yl)-1,3-dioxoisoindolin-5-yl)piperidin-4-yl)methyl)piperidin-4-yl)phenyl)amino)-9H-purin-9-yl)cyclobutyl)-2-phenylacetamide] | 10/10/10% | 10/10/10% | 10/10/10% | 10% | 0% | 0%

Continued, values first:

Row | Enzyme degradation CDK2 (% remaining) @ 0.1 μM (CDK2) | Enzyme degradation CDK2 (% remaining) @ 1 μM (CDK2) | Enzyme degradation CDK2 (% remaining) @ 10 μM (CDK2) | Enzyme degradation CDK9 (% remaining) @ 0.1 μM (CDK9) | Enzyme degradation CDK9 (% remaining) @ 1 μM (CDK9) | Enzyme degradation CDK9 (% remaining) @ 10 μM (CDK9) | Compound
4 | 0/0/0% | 0/0/0% | 0/0/0% | 0/0/0% | 0/0/0% | 0/0/0% | O=C1CCC(N2C(=O)c3cccc(OCC(=O)N4CCC5(CC4)CC(N4CCC(c6ccc(Nc7ncnc8c7ncn8[C@H]7C[C@@H](NC(=O)Cc8ccccc8)C7)cc6)CC4)C5)c3C2=O)C(=O)N1 (stereo partly drawn) [Compound 293, N-((1s,3s)-3-(6-((4-(1-(7-(2-((2-(2,6-dioxopiperidin-3-yl)-1,3-dioxoisoindolin-4-yl)oxy)acetyl)-7-azaspiro[3.5]nonan-2-yl)piperidin-4-yl)phenyl)amino)-9H-purin-9-yl)cyclobutyl)-2-phenylacetamide]
5 | 10/10/10% | 10/10/10% | 10/10/10% | 0/0/0% | 0/0/0% | 0/0/0% | O=C1CCC(N2C(=O)c3cccc(NCC(=O)N4CCC5(CC4)CC(N4CCC(c6ccc(Nc7ncnc8c7ncn8[C@H]7C[C@@H](NC(=O)Cc8ccccc8)C7)cc6)CC4)C5)c3C2=O)C(=O)N1 (stereo partly drawn) [Compound 294, N-((1s,3s)-3-(6-((4-(1-(7-((2-(2,6-dioxopiperidin-3-yl)-1,3-dioxoisoindolin-4-yl)glycyl)-7-azaspiro[3.5]nonan-2-yl)piperidin-4-yl)phenyl)amino)-9H-purin-9-yl)cyclobutyl)-2-phenylacetamide]
